These results are taken from patent publication US12509446B2, “FYN and VEGFR2 kinase inhibitors” (ROTTAPHARM BIOTECH S.R.L., priority 2019, dated 2025).

The structures appear in SMILES notation. Read-outs that look alike come from different tables or passages of the source.

Data set [1] has as its target Fyn (Homo sapiens (Human), UniProt P06241). Put plainly: Z′-LYTE in vitro Fyn kinase activity assay. The class given is biochemical. The following applies: ATP 50 μM; read-out: FYN KINASE INHIBITION IC50. The procedure, abridged: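 Z′-LYTE FRET format with full-length active Fyn in 50 mM Hepes pH 7.5, 10 mM MgCl2, 1 mM EGTA, 0.01% Brij-35, 1% DMSO final; 60 minutes at 25° C. Percent phosphorylation from 0% and 100% phosphorylation controls; IC50 by non-linear curve fitting of percent inhibition.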

Data set [2] has as its target VEGFR (Homo sapiens (Human), UniProt P35968). Briefly: Inhibition of VEGF-induced VEGFR (Y1175)-phosphorylation in HUVEC-C cells. It counts as cell-based. The following applies: starting from the concentration of 0.01 μM; VEGF 50 ng/ml.
Method: HUVEC-C cells (Human Umbilical Vein Endothelial Cells from ATCC) were plated at 6×10^4 cells/well in 24 w microplates and grown adherent in medium F12K+0.1 mg/ml Heparin+0.05 mg/ml ECGS+10% FBS at 37° C. with 5% CO2. After 24 h, medium was removed and starvation was induced overnight in medium F12K+0.1 mg/ml Heparin+0.5% FBS (medium starvation). At the end of incubation, treatment of cells was performed by medium replacement and by adding fresh medium starvation containing or not diluent (DMSO 0.1% final concentration), or test compound (range 10^−8 M-10^−5 M). After 1 hour, VEGF stimuli (50 ng/ml final concentration) was added to each sample, with the exception of “basal-no stimulus” sample; plate was then incubated for 5 min at 37° C. with 5% CO2. At the end of the incubation, the medium was removed and cellular lysates, obtained by adding M-PER lysis/Protease/Phosphatase inhibitors cocktail. Then, lysates were transferred into Eppendorf tubes, sonicated and stored at −80° C.
Lysates were analyzed by Western blot for VEGFR phosphorylation (Tyrosine 1175) and total receptor amount determination. Densitometric analysis of sample lanes were performed by ImageQuant TL software (GE Healthcare Life Sciences). Each sample value was normalized by respective actin; resulting data were used to calculate inhibitory effect of compounds with respect to stimuli control (absence of inhibitor).
The test system of data set [3] is ADAMTS-5. Briefly: Gene expression in rat articular chondrocytes under IL-1β stimulation, ADAMTS-5. It counts as cell-based. The following applies: Rattus norvegicus, Chondrocyte; 6 h incubation. The gist of the method: (§1)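 Compound concentrations were chosen from toxicity data on primary rat chondrocytes, which were co-incubated with them and 2 ng/ml cytokine in DMEM GlutaMAX I 0.4%. mRNA was measured by 18S-normalised qPCR, at 6 h for IL-1β/ADAMTS-5 and at 24 h for MMP3/MMP13.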

In data set [4] the target is human FynB (Homo sapiens, UniProt P06241). Briefly: Inhibition of FynB-induced Tau(Y18)-phosphorylation in HEK293 cells. The class given is cell-based. The procedure: After 24 h, cells were transfected in order to over-express either constitutively active form of human FynB and Tau protein (isoform 0N4R), through an optimized Lipofectamine®3000 Transfection protocol (Life Technologies™). A non-transfected sample (negative control) was included in every experiment. Twenty-four hours from transfection, treatments of cells were performed by adding fresh medium containing diluent (DMSO 0.1% final concentration) or test compounds. The incubation was carried out for 6 or 24 hours at 37° C. with 5% CO2. At the end of the incubation, the medium was removed and cellular lysates, obtained by adding M-PER lysis/Protease/Phosphatase inhibitors cocktail, were transferred into Eppendorf tubes, sonicated and stored at −80° C. Protein content was measured by Bradford method. Lysates were analyzed either by customized ELISA assays for Tau phosphorylation (Tyrosine 18 residue—Fyn mediated) and Tau-Total amount determination.
Chain of human FynB (P06241 2-537 limits assumed): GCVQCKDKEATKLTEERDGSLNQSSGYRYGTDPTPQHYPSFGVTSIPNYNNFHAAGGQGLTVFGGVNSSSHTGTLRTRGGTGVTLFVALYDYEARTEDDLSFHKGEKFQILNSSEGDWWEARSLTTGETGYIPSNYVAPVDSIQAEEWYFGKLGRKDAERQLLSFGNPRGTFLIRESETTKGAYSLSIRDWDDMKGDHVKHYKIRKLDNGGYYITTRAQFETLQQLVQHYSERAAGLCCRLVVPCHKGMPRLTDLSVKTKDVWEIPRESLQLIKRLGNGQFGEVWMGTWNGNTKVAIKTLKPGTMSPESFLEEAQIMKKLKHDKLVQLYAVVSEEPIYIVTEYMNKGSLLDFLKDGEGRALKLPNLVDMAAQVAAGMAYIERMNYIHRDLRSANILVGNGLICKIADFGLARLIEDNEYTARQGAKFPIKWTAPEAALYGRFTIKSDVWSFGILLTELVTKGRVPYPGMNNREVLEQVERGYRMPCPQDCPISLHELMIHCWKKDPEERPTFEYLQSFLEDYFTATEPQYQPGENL

Data set [5] has as its system NF-kB. Briefly: Gene reporter (GR) assay, NF-kB activation after TNFα in JB6 Cl 41-5a (P+) cells. To be noted: TNFα 2 ng/ml, non toxic concentrations, read-out: Gene reporter (GR) inhibition IC50. It counts as cell-based, murine. The procedure, abridged:
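TNFα (2 ng/ml, 4 h) stimulation followed 1 h compound pre-treatment in NF-kB-luciferase-transfected mouse JB6 (P+) epithelial cells. Reporter luminescence and cell viability were read together, each condition in quadruplicate.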

A short description of data set [6]: Pharmacokinetics, oral route, mice. The following applies: mouse, in vivo, read-out: Absolute bioavailability.
For data set [7], the system named is IL-6. Put plainly: Gene expression in rat articular chondrocytes under IL-1β stimulation, IL-6. It counts as cell-based. The following applies: Rattus norvegicus, Chondrocyte; 6 h incubation.
Data set [8] addresses VEGFR2 (Homo sapiens (Human), UniProt P35968). Briefly: In vitro VEGFR2 kinase activity assay (Eurofins Cerep). The class given is biochemical. To be noted: read-out: VEGFR2 KINASE INHIBITION IC50. The procedure, abridged: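 Contract biochemical kinase assay on human VEGFR2 with inhibitors at 10^−8 to 10^−5 M final (some re-tested from 10^−9 M). Activity expressed as percent of no-compound control; IC50 by non-linear regression of mean replicate inhibition curves.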

The test system of data set [9] is MMP3. Put plainly: Gene expression in rat articular chondrocytes under IL-1β stimulation, MMP3. The class given is cell-based. The following applies: Rattus norvegicus, Chondrocyte; 24 h incubation. The gist of the method: as §1
The nature of data set [10]: Pharmacokinetics, systemic routes, rats. It counts as in vivo.

Chain of Fyn (P06241 whole entry): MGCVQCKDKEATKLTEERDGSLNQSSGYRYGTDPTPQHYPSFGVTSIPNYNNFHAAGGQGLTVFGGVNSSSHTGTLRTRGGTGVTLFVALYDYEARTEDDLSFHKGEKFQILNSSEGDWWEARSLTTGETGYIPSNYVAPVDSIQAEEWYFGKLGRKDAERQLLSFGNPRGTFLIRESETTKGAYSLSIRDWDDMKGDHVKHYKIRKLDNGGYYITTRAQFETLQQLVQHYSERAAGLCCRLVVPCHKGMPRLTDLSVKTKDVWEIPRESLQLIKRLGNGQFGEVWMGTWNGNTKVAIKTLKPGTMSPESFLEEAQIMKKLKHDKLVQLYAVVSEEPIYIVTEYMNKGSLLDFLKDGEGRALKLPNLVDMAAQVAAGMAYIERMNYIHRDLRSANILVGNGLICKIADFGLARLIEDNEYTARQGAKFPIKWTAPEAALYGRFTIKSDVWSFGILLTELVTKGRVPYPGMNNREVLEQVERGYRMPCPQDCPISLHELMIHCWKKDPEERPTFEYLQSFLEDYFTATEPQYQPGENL
Chain of VEGFR2 (P35968 20-1356): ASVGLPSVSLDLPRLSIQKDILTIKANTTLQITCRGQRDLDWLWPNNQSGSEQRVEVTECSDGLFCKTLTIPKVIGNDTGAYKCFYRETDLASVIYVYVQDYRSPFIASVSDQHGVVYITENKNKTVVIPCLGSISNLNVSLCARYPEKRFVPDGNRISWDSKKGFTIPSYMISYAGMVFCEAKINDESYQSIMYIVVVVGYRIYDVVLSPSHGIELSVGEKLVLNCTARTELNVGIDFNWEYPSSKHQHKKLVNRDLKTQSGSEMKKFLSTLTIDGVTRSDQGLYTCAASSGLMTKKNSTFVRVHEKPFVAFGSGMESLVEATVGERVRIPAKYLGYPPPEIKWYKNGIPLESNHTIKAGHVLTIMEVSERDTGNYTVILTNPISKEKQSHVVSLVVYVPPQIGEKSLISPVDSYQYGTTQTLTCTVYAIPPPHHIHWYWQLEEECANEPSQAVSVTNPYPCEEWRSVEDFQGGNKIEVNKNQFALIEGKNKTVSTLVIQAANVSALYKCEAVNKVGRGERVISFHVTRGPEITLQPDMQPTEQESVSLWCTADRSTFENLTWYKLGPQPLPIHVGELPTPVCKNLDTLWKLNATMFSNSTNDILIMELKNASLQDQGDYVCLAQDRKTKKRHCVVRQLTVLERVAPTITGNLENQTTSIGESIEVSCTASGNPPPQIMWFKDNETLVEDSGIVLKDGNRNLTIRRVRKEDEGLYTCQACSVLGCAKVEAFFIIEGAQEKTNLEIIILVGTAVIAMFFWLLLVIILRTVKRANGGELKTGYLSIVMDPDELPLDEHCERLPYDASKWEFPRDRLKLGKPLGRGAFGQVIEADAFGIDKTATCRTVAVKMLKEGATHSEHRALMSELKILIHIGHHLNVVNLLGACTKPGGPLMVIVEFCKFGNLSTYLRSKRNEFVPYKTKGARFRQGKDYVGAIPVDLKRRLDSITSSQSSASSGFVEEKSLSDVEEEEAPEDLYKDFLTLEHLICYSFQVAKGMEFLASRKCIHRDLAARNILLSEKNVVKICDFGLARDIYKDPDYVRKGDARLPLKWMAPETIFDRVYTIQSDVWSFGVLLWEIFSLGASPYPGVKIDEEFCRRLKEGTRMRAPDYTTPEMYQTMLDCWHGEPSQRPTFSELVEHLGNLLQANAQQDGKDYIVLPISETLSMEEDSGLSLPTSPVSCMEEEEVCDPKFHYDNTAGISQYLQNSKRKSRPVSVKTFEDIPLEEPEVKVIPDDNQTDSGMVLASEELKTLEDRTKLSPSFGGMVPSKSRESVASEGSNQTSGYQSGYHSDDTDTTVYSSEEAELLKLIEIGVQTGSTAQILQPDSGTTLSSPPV
Chain of VEGFR (P35968 20-1356): as above

What is called IC50 is the concentration that inhibits the measured activity by half. One may read the bioavailability as dose-corrected exposure relative to a reference, in per cent. With `Cc1ccc(NC(=O)c2cccc(C(F)(F)F)c2)cc1CCc1cc(Nc2cnccn2)[nH]n1` [Compound 3, N-(4-methyl-3-(2-(5-(pyrazin-2-ylamino)-1H-pyrazol-3-yl)ethyl)phenyl)-3-(trifluoromethyl)benzamide], the IC50 in data set [1] is 9 nM; in data set [3], 34 nM; in data set [4] (read-out: Inhibition of FynB-induced Tau(Y18)-phosphorylation IC50, after 6 hours of treatment) it was 131 nM; in data set [5] (Mus musculus, JB6 Cl 41-5a), < 250 nM; in [5], 236 nM; in data set [7], 18 nM. Moreover, the IC50 in data set [8] turned out to be 7 nM; in data set [9], 323 nM. Besides, the “Inhibitory activity on VEGFR-phosphorylation at Y1175 residue” value in data set [2] was “complete inhibitory activity”. In [4], the “Effect on Tau-protein total amount” value was “Moderate not significant effect”. In [4] (after 24 hours of treatment), the “Mean percentage of inhibition of Tau(Y18)-phosphorylation” value was found to be 95%. Besides, the bioavailability in data set [6] is ~12%; in [10] (rat, in vivo, oral route, read-out: Absolute bioavailability), ~6%. In [10], the Metabolism in rats entry was “lack of important metabolism”.
